Source: patent US20250347685A1, “DONOR-ACCEPTOR CONJUGATED OLIGOELECTROLYTES FOR CELL LABELLING AND METHODS THEREOF” (National University of Singapore, priority 2021, published 2025)

What was measured:
[1] = COE intercalation into lipid bilayer of SUVs, emission measured with a fluorimeter; assay type: physicochemical; conditions: in PBS
Description: Liposomes were prepared using the protocol as follows. Phospholipids (ex. POPC, POPE, and POPG) in chloroform solution were mixed to a proper molar ratio and dried under a gentle stream of nitrogen. The dried lipids were further desiccated in a vacuum overnight to obtain a thin lipid film. For preparing small unilamellar vesicles (SUVs), rehydration of the dried film was carried out by adding phosphate buffered saline (PBS) to a concentration of 5 mg mL-1, followed by incubation at 35° C. for 2 h under constant stirring at ˜300 rpm. Then, the vesicles were extruded using a 100 nm membrane at 45° C. 21 times to obtain SUV samples. Vesicles were kept at 4° C. until further use.
When mixing the SUVs with COE-BT, the COE will intercalate into the lipid bilayers. This is spontaneously driven by the electrostatic and hydrophobic interactions between the COEs and the lipids. As a result, a significant emission enhancement is observed. For example, relative to the COE-BT solution, the emission intensity of the SUV and COE-BT complexes increases more than 400 times between 600 to 630 nm. […] By adjusting different chemical structures, the COEs can achieve different emission wavelengths, ranging from “green”, “red”, to even “infrared” (FIGS. 14 & 15). The various color choices confer COE dyes with high compatibility in using multiple dyes concurrently.

[2] = Dynamic light scattering of liposome size and uniformity after COE addition; assay type: physicochemical; conditions: 10 μM COE into 1 mg/mL SUV samples
Description: To identify whether COE treatment will alter the morphology of liposomes (e.g., inducing the fusion or fission of liposomes), dynamic light scattering (DLS) measurements with a lipid SUV model were employed (FIG. 16). The SUVs were obtained after extrusion using a 100 nm membrane. […] After addition of 10 μM COE-BBT into the 1 mg/mL SUV samples, the Z-average size is 104.8±32.65 nm with a PDI of 0.054.

SW480 exosomes = experiment: NanoAnalyzer (NanoFCM) flow analysis of dye-labelled SW480 exosomes and dye only controls; conditions: for % Positive for dye: after purifying excess dyes using ultracentrifugation; for Number of particle counts, positive / Number of particle counts, total: dye only controls
Description: In another example, exosomes isolated from SW480 colon cancer cell lines and purified using size exclusion chromatography were kindly provided by NanoFCM (UK). The labelling and flow cytometry analysis were also carried out by the trained technicians at NanoFCM (UK). […] The mixture was left to incubate at room temperature for 30 min and then diluted 100 times using PBS before analysis on the NanoAnalyzer (NanoFCM). Detection of the exosomes was carried out on the small threshold settings (68-155 S16M-Exo) and analysis of the labelled population was done on the PC5 channel (Ex488/Em670). Dye control samples were prepared by replacing the 9 μL exosome solution with PBS, followed by the same steps as the exosome samples for flow analysis. The results were validated through at least two replicates. In a separate experiment, the labelled exosomes were also purified of excess dyes using standard ultracentrifugation methods before analyzing as per described above.

HCT 116 Exosomes = experiment: Flow cytometry of exosomes labelled with COE compound
Description: Exosome were prepared via the following protocol: Exosomes were purchased from ATCC, aliquoted and stored at −80° C. A single aliquot was removed from −80° C. and placed on ice. Exosomes were diluted 10 times in cell culture grade PBS. 8 μL of the exosome suspension was mixed with between […] of COE compound. This was placed on ice for 10-minutes before being diluted 100 times in PBS to an approximate final concentration of 6×10^6 particles/mL of exosomes and 25-1 nM of COE.
Samples were briefly vortexed and used for flow cytometry. Flow cytometry measurements were obtained by measuring the side scattering on the violet laser (x-axis) and by measuring fluorescent intensity (y-axis: λexcitation=405, 488 nm λemission=525, 690 nm). […] Using the COE compound, the exosomes can be stained with a low concentration of dye and can be used directly without additional purification.

Red blood cells = experiment: Flow cytometry of red blood cells from donor's blood labelled with dye; assay type: cell-based
Description: Red blood cells were obtained from donor's blood after removing the plasma via centrifugation. The RBC were either used fresh or stored for 22 days. […] The cells were incubated with the dyes for 10 min before centrifuging down at 700 g for 3 min to remove free dyes. The labelled cell pellet was then resuspended in 1 mL of PBS. The cells were then diluted 10× further in PBS before imaging on the 8-well ibidi chamber slides, and analysing for size and fluorescence on the flow cytometry (Cytoflex).

RBCs = experiment: Flow cytometry of COE-stained and unstained red blood cells mixed at various ratios; assay type: cell-based, Bovine
Description: RBCs (isolated from Bovine whole blood, Innovative Research, Inc.) were diluted 10 times from stock into PBS and centrifuged at 3,000 RPM for 5 minutes. The supernatant was removed, and the pellet was resuspended in PBS. This was repeated for a total of 3 times. The final pellet was resuspended into PBS to be 1% by volume. […] COE compound was added to the RBC suspension and was allowed to incubate for 20 min at RT. The RBC COE compound mixture was then centrifuged again at 3,000 RPM for 5 min. The supernatant was removed and the pellet resuspended in fresh PBS. COE compound stained and unstained RBCs were respectively mixed at various ratios by volume of 0:5, 1:4, 2:3, 3:2, 4:1 and 5:0. The resulting RBC mixtures were diluted 100 times in PBS for flow cytometry experiments.

Structure (SMILES)	% Positive for dye (SW480 exosomes; 10 uM)	% Positive for dye (SW480 exosomes; 20 uM)	Number of particle counts, positive (SW480 exosomes; 10 uM)	Number of particle counts, total (SW480 exosomes; 10 uM)	% of events in Area of Interest (HCT 116 Exosomes; Exosome + COE)	All Events/μL (HCT 116 Exosomes; Exosome + COE)	Area of Interest Events/μL (HCT 116 Exosomes; Exosome + COE)	% of events in Area of Interest (HCT 116 Exosomes; dye only, no exosomes)	All Events/μL (HCT 116 Exosomes; dye only, no exosomes)	Area of Interest Events/μL (HCT 116 Exosomes; dye only, no exosomes)	other results
C[N+](C)(C)CCCCCCOc1cc(/C=C/c2ccc(-c3ccc(-c4c5c(c(-c6ccc(-c7ccc(/C=C/c8cc(OCCCCCC[N+](C)(C)C)c(OCCCCCC[N+](C)(C)C)c(OCCCCCC[N+](C)(C)C)c8)cc7)s6)c6nsnc46)N=S=N5)s3)cc2)cc(OCCCCCC[N+](C)(C)C)c1OCCCCCC[N+](C)(C)C [COE-BBT]											emission enhancement after mixing with SUVs (in words) [1]: same phenomenon is seen; PDI of SUVs after COE addition [2]: 0.054; Z-average size of SUVs after COE addition [2]: 104.8±32.65 nm
C[N+](C)(C)CCCCCCOc1cc(/C=C/c2ccc(-c3ccc(-c4ccc(-c5ccc(-c6ccc(/C=C/c7cc(OCCCCCC[N+](C)(C)C)c(OCCCCCC[N+](C)(C)C)c(OCCCCCC[N+](C)(C)C)c7)cc6)s5)c5nonc45)s3)cc2)cc(OCCCCCC[N+](C)(C)C)c1OCCCCCC[N+](C)(C)C.[Br-].[Br-].[Br-].[Br-].[Br-].[Br-] [COE-BO]	43.10%	47.60%	2	181							Percentage + (positive events) (SW480 exosomes; labelled SW480 exosomes, 10 uM, N = 2): 66.55%
C[N+](C)(C)CCCCCCOc1cc(/C=C/c2ccc(-c3ccc(-c4ccc(-c5ccc(-c6ccc(/C=C/c7cc(OCCCCCC[N+](C)(C)C)c(OCCCCCC[N+](C)(C)C)c(OCCCCCC[N+](C)(C)C)c7)cc6)s5)cc4)s3)cc2)cc(OCCCCCC[N+](C)(C)C)c1OCCCCCC[N+](C)(C)C.[I-].[I-].[I-].[I-].[I-].[I-] [COE-Ben]					54.69%	6071.19 Events/μL	3314.72 Events/μL	6.72%	1480.33 Events/μL	99.48 Events/μL	
C[N+](C)(C)CCCCCCOc1cc(/C=C/c2ccc(-c3ccc(-c4ccc(-c5ccc(-c6ccc(/C=C/c7cc(OCCCCCC[N+](C)(C)C)c(OCCCCCC[N+](C)(C)C)c(OCCCCCC[N+](C)(C)C)c7)cc6)cc5)cc4)cc3)cc2)cc(OCCCCCC[N+](C)(C)C)c1OCCCCCC[N+](C)(C)C.[I-].[I-].[I-].[I-].[I-].[I-] [COE-Quin]					63.71%	6088.97 Events/μL	3878.99 Events/μL	7.98%	1438.47 Events/μL	114.78 Events/μL	
C[N+](C)(C)CCCCCCOc1cc(/C=C/c2ccc(/C=C/c3ccc(/C=C/c4ccc(/C=C/c5ccc(/C=C/c6cc(OCCCCCC[N+](C)(C)C)c(OCCCCCC[N+](C)(C)C)c(OCCCCCC[N+](C)(C)C)c6)cc5)cc4)cc3)cc2)cc(OCCCCCC[N+](C)(C)C)c1OCCCCCC[N+](C)(C)C.[I-].[I-].[I-].[I-].[I-].[I-] [COE-S6]					63.67%	5113.31 Events/μL	3255.41 Events/μL	1.41%	2909.37 Events/μL	41.08 Events/μL	artifact to the morphology of the RBC (FSC/SSC dot plots) (Red blood cells; 1 μM COE-S6): does not introduce an artifact; change in fluorescence of RBCs labelled with increasing dye concentrations (Red blood cells; histograms, FIG. 35 d-e): increase in fluorescence; homogeneity of RBC labelling (coefficient of variance of histogram data) (Red blood cells; versus Cell Mask Deep Red): more homogeneous and uniform; RBC + COE-S6 Events/μL (RBCs; stained to unstained RBCs 1:4): 207.2 Events/μL; RBC Events/μL (RBCs; stained to unstained RBCs 1:4): 891.58 Events/μL; total events/μL (RBCs; stained to unstained RBCs 1:4): 1098 events/μL; RBC + COE-S6 Events/μL (RBCs; stained to unstained RBCs 2:3): 312.27 Events/μL; RBC Events/μL (RBCs; stained to unstained RBCs 2:3): 812.03 Events/μL; total events/μL (RBCs; stained to unstained RBCs 2:3): 1124 events/μL; RBC + COE-S6 Events/μL (RBCs; stained to unstained RBCs 3:2): 767.09 Events/μL; RBC Events/μL (RBCs; stained to unstained RBCs 3:2): 470.71 Events/μL; total events/μL (RBCs; stained to unstained RBCs 3:2): 1237 events/μL; RBC + COE-S6 Events/μL (RBCs; stained to unstained RBCs 4:1): 1039.71 Events/μL; RBC Events/μL (RBCs; stained to unstained RBCs 4:1): 225.64 Events/μL; total events/μL (RBCs; stained to unstained RBCs 4:1): 1265 events/μL; RBC + COE-S6 Events/μL (RBCs; stained to unstained RBCs 5:0): 450.48 Events/μL; RBC Events/μL (RBCs; stained to unstained RBCs 5:0): 2.98 Events/μL; total events/μL (RBCs; stained to unstained RBCs 5:0): 453 events/μL
CCCCCCCCCCCCCCCCCCCCCC[N+]1=C(/C=C/C=C2/N(CCCCCCCCCCCCCC)c3ccccc3C2(C)C)C(C)(C)c2ccccc21.[I-] [PKH-26, reference compound]	22.00%	19.90%	636	637							
